Earlier results on 20 compounds are cited in PMC11634579, “Network pharmacology, experimental validation and pharmacokinetics integrated strategy to reveal pharmacological mechanism of goutengsan on methamphetamine dependence” (Frontiers in Pharmacology, 2024).

Details of the series: method as in Ru et al., 2014. The note with it: obtained from TCMSP database; ref Ru et al., 2014; cited from earlier work.
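Wherever BBB (blood–brain–barrier) is given: unitless TCMSP predicted score with screening cut-off BBB at least 0.3.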

With `COc1cc2c(cc1OC)[C@H]1[C@@H](C)c3ccc4c(c3CN1CC2)OCO4` [Cavidine], the “BBB (blood–brain–barrier)” value is 0.63 and the “OB% (oral bioavailability)” value is 35.64%.

`CCCCCC=CCC=CCCCCCCCCCC(=O)OC` [Methyl icosa-11,14-dienoate]: the “BBB (blood–brain–barrier)” value is listed as 1.10 and the “OB% (oral bioavailability)” value is 39.67%.

With `CC[C@H](/C=C/[C@@H](C)[C@H]1CC[C@H]2[C@@H]3CC=C4C[C@@H](O)CC[C@]4(C)[C@H]3CC[C@]12C)C(C)C` [Stigmasterol], the “BBB (blood–brain–barrier)” value is 1.00 and the “OB% (oral bioavailability)” value is 43.83%.

`COC(=O)C1=CO[C@@H](C)[C@@H]2CN3CCc4c([nH]c5ccccc45)[C@@H]3C[C@H]12` [Tetrahydroalstonine]: the “BBB (blood–brain–barrier)” value is on record as 0.33 and the “OB% (oral bioavailability)” value is reported as 32.42%.

Take `CC(C)=CCc1c2ccoc2c(O)c2oc(=O)ccc12` [Prangenidin]: the “BBB (blood–brain–barrier)” value was 0.50 and the “OB% (oral bioavailability)” value is reported as 36.31%.

Turning to `CCCCC/C=C\C/C=C\CCCCCCCC(=O)OCC` [Mandenol], the “BBB (blood–brain–barrier)” value was 1.14 and the “OB% (oral bioavailability)” value is reported as 42.00%.

As to `CC(C)[C@@H](C)/C=C/[C@@H](C)[C@H]1CC[C@H]2C3=CC[C@H]4C[C@@H](O)CC[C@]4(C)[C@H]3CC[C@]12C` [5-dihydroergosterol], the “BBB (blood–brain–barrier)” value is reported as 0.91 and the “OB% (oral bioavailability)” value is 43.51%.

In the case of `CC[C@H]1CN2CCc3c([nH]c4ccccc34)[C@H]2C[C@@H]1/C(=C\OC)C(=O)OC` [Hirsutine], the “BBB (blood–brain–barrier)” value is on record as 0.78 and the “OB% (oral bioavailability)” value is reported as 34.44%.

As to `Oc1ccc2c(c1)OC[C@H]1c3cc4c(cc3O[C@@H]21)OCO4` [Inermine], the “BBB (blood–brain–barrier)” value is 0.40 and the “OB% (oral bioavailability)” value is 75.18%.

In the case of `COc1ccc2c(=O)c(-c3ccccc3)c(C)oc2c1` [7-methoxy-2-methyl isoflavone], the “BBB (blood–brain–barrier)” value was 0.56 and the “OB% (oral bioavailability)” value is on record as 42.56%.

With `Oc1ccc2c(c1)OC[C@H]1c3cc4c(cc3O[C@@H]21)OCO4` [Inermin], the “BBB (blood–brain–barrier)” value is recorded as 0.36 and the “OB% (oral bioavailability)” value is reported as 65.83%.

With `O=c1oc2ccccc2c2oc3ccccc3c(=O)c12` [Frutinone A], the “BBB (blood–brain–barrier)” value was 0.46 and the “OB% (oral bioavailability)” value is on record as 65.90%.

As for Medicarpin, the “BBB (blood–brain–barrier)” value is 0.53 and the “OB% (oral bioavailability)” value was 49.22%.

Regarding `C=C[C@H]1CN2CC[C@]3(C(=O)Nc4ccccc43)[C@@H]2C[C@@H]1/C(=C\OC)C(=O)OC` [Corynoxeine], the “BBB (blood–brain–barrier)” value is recorded as 0.50 and the “OB% (oral bioavailability)” value was 57.13%.

In the case of `CCCCCCCCCCCCCCC=CCCCC(=O)O` [Icos-5-enoic acid], the “BBB (blood–brain–barrier)” value is reported as 1.09 and the “OB% (oral bioavailability)” value was 30.70%.

On to `CC[C@H](CC[C@@H](C)[C@H]1CC[C@H]2[C@@H]3CC=C4C[C@@H](O)CC[C@]4(C)[C@H]3CC[C@]12C)C(C)C` [Beta-sitosterol], for which the “BBB (blood–brain–barrier)” value is given as 0.99.

With `COc1ccc(C2COc3c(ccc4c3C=CC(C)(C)O4)C2)c(O)c1O` (centres unmarked) [3′-hydroxy-4′-O-methylglabridin], the “BBB (blood–brain–barrier)” value is recorded as 0.73 and the “OB% (oral bioavailability)” value was 43.71%.

With `COc1cc(O)cc2c1[C@@H]1Oc3c(ccc(O)c3CC=C(C)C)[C@@H]1CO2` [1-methoxyphaseollidin], the “BBB (blood–brain–barrier)” value was 0.48 and the “OB% (oral bioavailability)” value is 69.98%.

For `CC[C@@H](CC[C@@H](C)[C@H]1CC[C@H]2[C@@H]3CC=C4C[C@@H](O)CC[C@]4(C)[C@H]3CC[C@]12C)C(C)C` [Clionasterol], the “BBB (blood–brain–barrier)” value is 1.14.

As for `CC(C)=CCOc1c2occc2cc2ccc(=O)oc12` [Ammidin], the “BBB (blood–brain–barrier)” value is reported as 0.92 and the “OB% (oral bioavailability)” value is 34.55%.
